Results taken from ChEMBL document CHEMBL4359846, “Design, synthesis, and antifibrosis evaluation of 4-(benzo-[c][1,2,5]thiadiazol-5-yl)-3(5)-(6-methyl- pyridin-2-yl)pyrazole and 3(5)-(6-methylpyridin- 2-yl)-4-(thieno-[3,2,-c]pyridin-2-yl)pyrazole derivatives” (Eur J Med Chem, 2019).

Legend:
[1] = target: T1, TGF-beta receptor type-1 (Homo sapiens) (UniProt P36897); assay: Inhibition of human recombinant GST-tagged ALK5 expressed in Sf9 insect cells at 10 uM using casein as substrate incubated for 60 mins in presence of [33P]-ATP by radiometric assay relative to control
T1 sequence (whole entry): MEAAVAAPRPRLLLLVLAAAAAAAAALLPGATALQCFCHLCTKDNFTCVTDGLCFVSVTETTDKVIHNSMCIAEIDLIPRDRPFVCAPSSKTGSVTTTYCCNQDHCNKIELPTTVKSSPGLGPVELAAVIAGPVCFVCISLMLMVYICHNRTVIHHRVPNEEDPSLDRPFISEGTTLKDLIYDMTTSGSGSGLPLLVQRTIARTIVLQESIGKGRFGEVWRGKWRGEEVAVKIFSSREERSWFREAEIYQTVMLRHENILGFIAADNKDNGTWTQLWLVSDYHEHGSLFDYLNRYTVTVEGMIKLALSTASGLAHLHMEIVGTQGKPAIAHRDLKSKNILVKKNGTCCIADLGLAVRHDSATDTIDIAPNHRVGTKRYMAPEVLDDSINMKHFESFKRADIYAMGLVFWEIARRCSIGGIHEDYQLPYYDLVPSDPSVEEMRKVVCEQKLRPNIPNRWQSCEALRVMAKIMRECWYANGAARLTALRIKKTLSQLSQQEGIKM

[2] = target: T2, Mitogen-activated protein kinase 14 (Homo sapiens, UniProt Q16539); assay: Inhibition of human recombinant untagged p38alpha expressed in Escherichia coli at 10 uM using ATF2 as substrate incubated for 60 mins in presence of [33P]-ATP by radiometric assay relative to control
TGF-beta receptor type-1 = target: T3, TGF-beta receptor type-1 (Homo sapiens, UniProt P36897); assay: Inhibition of human recombinant GST-tagged ALK5 expressed in Sf9 insect cells using casein as substrate incubated for 60 mins in presence of [33P]-ATP by radiometric assay
T3 sequence (P36897 whole entry): T1 sequence (whole entry)

[3] = target: T2, Mitogen-activated protein kinase 14; assay: Inhibition of human recombinant untagged p38alpha expressed in Escherichia coli using ATF2 as substrate incubated for 60 mins in presence of [33P]-ATP by radiometric assay
[4] = Cytotoxicity against human LX2 cells assessed as reduction in cell viability at 4 to 100 uM incubated for 3 hrs by MTT assay; format: cell-based

T2 sequence (Q16539 whole entry): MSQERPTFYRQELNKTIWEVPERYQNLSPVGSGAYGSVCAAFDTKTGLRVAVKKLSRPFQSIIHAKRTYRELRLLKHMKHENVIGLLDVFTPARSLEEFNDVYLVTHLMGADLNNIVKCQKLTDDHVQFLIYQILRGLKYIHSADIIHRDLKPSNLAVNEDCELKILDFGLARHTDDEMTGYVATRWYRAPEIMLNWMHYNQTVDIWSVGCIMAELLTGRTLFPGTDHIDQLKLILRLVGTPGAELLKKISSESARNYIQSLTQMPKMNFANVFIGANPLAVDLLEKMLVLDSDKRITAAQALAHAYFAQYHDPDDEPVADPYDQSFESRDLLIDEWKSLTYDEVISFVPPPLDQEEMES

SMILES | inhibition [1] | inhibition [2] | IC50 (TGF-beta receptor type-1) | IC50 [3] | Activity [4]
Cc1cccc(-c2nn(CC(=O)Nc3ccccc3)cc2-c2ccc3nsnc3c2)n1 | 98 to 99% | 0 to 66% | 0.03 µM | > 10 µM | –
Cc1cccc(-c2nn(CC(=S)Nc3cccc(C#N)c3)cc2-c2cc3cnccc3s2)n1 | – | 0 to 66% | 0.078 µM | 9.46 µM | –
Cc1cccc(-c2nn(CC(=S)Nc3ccccc3)cc2-c2ccc3nsnc3c2)n1 | – | 0 to 66% | 0.042 µM | 5.8 µM | –
Cc1cccc(-c2nn(CC(=S)Nc3ccccc3F)cc2-c2ccc3nsnc3c2)n1 | – | 0 to 66% | 0.055 µM | 3.8 µM | –
Cc1cccc(-c2nn(CC(=O)Nc3ccccc3F)cc2-c2ccc3nsnc3c2)n1 | 98 to 99% | 0 to 66% | 0.168 µM | > 10 µM | –
Cc1cccc(-c2c(-c3ccc4nsnc4c3)cnn2CC(=O)Nc2ccccc2)n1 | 52 to 98% | 0 to 66% | – | – | –
Cc1cccc(-c2c(-c3cc4cnccc4s3)cnn2CC(=O)Nc2cccc(C#N)c2)n1 | 46 to 91% | 0 to 66% | – | – | –
Cc1cccc(-c2nn(CC(=O)Nc3cccc(C#N)c3)cc2-c2cc3cnccc3s2)n1 | 98 to 100% | 0 to 66% | 0.23 µM | > 10 µM | –
Cc1cccc(-c2c(-c3ccc4nsnc4c3)cnn2CC(=O)Nc2cccc(F)c2)n1 | 52 to 98% | 0 to 66% | – | – | –
Cc1cccc(-c2c(-c3ccc4nsnc4c3)cnn2CC(=O)Nc2ccccc2F)n1 | 52 to 98% | 0 to 66% | – | – | –
Cc1cccc(-c2nn(CC(=O)Nc3cccc(F)c3)cc2-c2cc3cnccc3s2)n1 | 98 to 100% | 0 to 66% | 0.119 µM | > 10 µM | –
Cc1cccc(-c2nn(CC(=O)Nc3ccccc3F)cc2-c2cc3cnccc3s2)n1 | 98 to 100% | 0 to 66% | 0.312 µM | > 10 µM | –

The next lines start with results.

inhibition [1] | inhibition [2] | IC50 (TGF-beta receptor type-1) | IC50 [3] | SMILES | Activity [4]
98 to 99% | 0 to 66% | 0.087 µM | > 10 µM | Cc1cccc(-c2nn(CC(=O)Nc3cccc(F)c3)cc2-c2ccc3nsnc3c2)n1 | –
46 to 91% | 0 to 66% | – | – | Cc1cccc(-c2c(-c3cc4cnccc4s3)cnn2CC(=O)Nc2ccccc2F)n1 | –
– | 0 to 66% | 0.116 µM | > 10 µM | Cc1cccc(-c2nn(CC(=S)Nc3cccc(C#N)c3)cc2-c2ccc3nsnc3c2)n1 | –
– | 0 to 66% | 0.125 µM | > 10 µM | Cc1cccc(-c2nn(CC(=S)Nc3cccc(F)c3)cc2-c2cc3cnccc3s2)n1 | –
52 to 98% | 0 to 66% | – | – | Cc1cccc(-c2c(-c3ccc4nsnc4c3)cnn2CC(=O)Nc2cccc(C#N)c2)n1 | –
– | 0 to 66% | 0.039 µM | 8.12 µM | Cc1cccc(-c2nn(CC(=O)Nc3ccccc3)cc2-c2cc3cnccc3s2)n1 | Non-Toxic
46 to 91% | 0 to 66% | – | – | Cc1cccc(-c2c(-c3cc4cnccc4s3)cnn2CC(=O)Nc2cccc(F)c2)n1 | –
– | 0 to 66% | 0.03 µM | 7.04 µM | Cc1cccc(-c2nn(CC(=S)Nc3cccc(F)c3)cc2-c2ccc3nsnc3c2)n1 | Toxic
46 to 91% | 0 to 66% | – | – | Cc1cccc(-c2c(-c3cc4cnccc4s3)cnn2CC(=O)Nc2ccccc2)n1 | –
98 to 99% | 0 to 66% | 0.165 µM | > 10 µM | Cc1cccc(-c2nn(CC(=O)Nc3cccc(C#N)c3)cc2-c2ccc3nsnc3c2)n1 | –
